Measured values: US20090264415A2 (priority 2004, published 2009)

The molecules below were run on peripheral blood mononuclear cells (PBMC) stimulated with allogeneic PBMC or EBV-transformed human B cells (RPMI1788) (assay: Mixed lymphocyte reaction (MLR) assay). Settings: 50% suppression of the MLR, [3H]-thymidine incorporation; read-out: MLR.
Type: cell-based
Outline: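 Compounds, held as 10 mM DMSO stocks and diluted in culture medium, were added to PBMC stimulated by 30 Gy-irradiated allogeneic PBMC or RPMI1788 cells. Proliferation was read as [3H]-thymidine uptake (1 μCi, final 16 h) after 5 days at 37° C. Inhibition was derived from cpm.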
Work on `O=C(Nc1cccc(Cl)c1)N1CCN(c2ncnc3ccc(Cl)nc23)CC1` [Example 70, 4-[(N-3-chlorophenylcarbamoyl)-piperazin-1-yl]-6-chloro-pyrido[3,2-d]pyrimidine] yielded an IC50 of 3400 nM. In the case of `Nc1nc(N2CCN(CCOc3ccccc3)CC2)c2nc(-c3ccc(F)cc3)ccc2n1` [Example 205], the IC50 is reported as 5500 nM.

Same assay, conditions: Homo sapiens, RPMI-1788; 50% suppression of the MLR, [3H]-thymidine incorporation; read-out: MLR
`COc1cc(-c2ccc3nc(N)nc(N)c3n2)ccc1O` [Example 93, 2,4-diamino-6-(4-hydroxy-3-methoxyphenyl)-pyrido[3,2-d]pyrimidine] was tested, and the IC50 was 5100 nM. Work on `Nc1nc(N2CCN(C(=O)c3ccco3)CC2)c2nc(-c3ccc4c(c3)OCO4)ccc2n1` [Example 192, 2-amino-4-[N-(2-furoyl)-piperazin-1-yl]-6-(3,4-methylenedioxyphenyl)-pyrido[3,2-d]pyrimidine] yielded an IC50 of 8100 nM.

Same assay, conditions: Homo sapiens, RPMI-1788; MLR assay of example 319; read-out: MLR IC50
`Nc1nc(N2CCN(C(=O)C3CCc4ccccc4O3)CC2)c2nc(-c3ccc(F)cc3)ccc2n1` (centres unmarked) [Example 524, [4-(2-amino-6-(4-fluorophenyl)pyrido[3,2-d]pyrimidin-4-yl)piperazin-1-yl]chroman-2-ylmethanone] was tested, and the IC50 was 225 nM. Molecule `Nc1nc(N2CCN(CC(=O)NCCc3ccccc3)CC2)c2nc(-c3ccc(F)cc3)ccc2n1` [Example 459, 2-amino-4-[4-[2-(phenyl)ethylcarbamylmethyl]-piperazin-1-yl]-6-(4-fluorophenyl)-pyrido[3,2-f]pyrimidine] has an IC50 of 500 nM. `Nc1nc(N2CCN(C(=O)COc3ccc(Cl)cc3)CC2)c2nc(-c3ccoc3)ccc2n1` [Example 402, 2-amino-4-[4-(4-chlorophenoxyacetyl)piperazin-1-yl]-6-(furan-3-yl)pyrido-[3,2-d]pyrimidine] gave an IC50 of 30 nM. `Cc1cccc(NC(=O)N[C@@H]2CCN(c3nc(N)nc4ccc(-c5ccc(F)cc5)nc34)C2)c1` [Example 579] gave an IC50 greater than 10000 nM. `Nc1nc(N2CCN(C(=O)COc3ccc(Cl)cc3)CC2)c2nc(-c3ccc(C(F)(F)F)cc3)ccc2n1` [Example 399, 2-amino-4-[4-(4-chlorophenoxyacetyl)piperazin-1-yl]-6-(4-trifluoromethylphenyl)-pyrido[3,2-d]pyrimidine] showed an IC50 of 500 nM. `COc1ccc(-c2ccc3nc(N)nc(N4CCN(C(=O)COc5ccc(Cl)cc5)CC4)c3n2)cn1` [Example 410, 2-amino-4-[4-(4-chlorophenoxyacetyl)piperazin-1-yl]-6-(2-methoxypyridin-5-yl)pyrido-[3,2-d]pyrimidine] gave an IC50 of 9 nM. `Nc1nc(N2C[C@@H]3C[C@H]2CN3C(=O)COc2ccc(Cl)cc2)c2nc(-c3ccc(F)cc3)ccc2n1` [Example 484, (S,S)-1-{5-[2-amino-6-(4-fluorophenyl)-pyrido[3,2-d]pyrimidin-4-yl]-2,5-diaza-bicyclo[2.2.1]hept-2-yl}-2-(4-chlorophenoxy)-ethanone] showed an IC50 of 2600 nM. `C[C@@H]1CN(C(=O)COc2ccc(Cl)cc2)CCN1c1nc(N)nc2ccc(-c3ccc(F)cc3)nc12` [Example 482, (R)-2-amino-4-[4-(4-chlorophenoxyacetyl)-2-methylpiperazin-1-yl]-6-(4-fluorophenyl)-pyrido[3,2-d]pyrimidine] was tested, and the IC50 was 500 nM. `NCc1ccc(-c2ccc3nc(N)nc(N4CCN(C(=O)COc5ccc(Cl)cc5)CC4)c3n2)cc1` [Example 447, 2-amino-4-[4-(4-chlorophenoxyacetyl)piperazin-1-yl]-6-[4-(aminomethyl)phenyl]pyrido-[3,2-d]pyrimidine] was tested, and the IC50 was 400 nM. Work on `Nc1nc(N2CCN(C(=O)COc3ccc(Cl)cc3)CC2)c2nc(-c3cccc(Cl)c3Cl)ccc2n1` [Example 425, 2-amino-4-[4-(4-chlorophenoxyacetyl)piperazin-1-yl]-6-(2,3-dichlorophenyl)-pyrido-[3,2-d]pyrimidine] yielded an IC50 of 300 nM. Work on `CCOc1ccc(-c2ccc3nc(N)nc(N4CCN(C(=O)COc5ccc(Cl)cc5)CC4)c3n2)cc1` [Example 494, 2-amino-4-[N-(4-chlorophenoxyacetyl)-piperazin-1-yl]-6-(4-ethoxyphenyl)-pyrido(3,2-d)pyrimidine] yielded an IC50 of 33 nM. `Cc1cccc(NC(=O)N2CCN(c3nc(N)nc4ccc(Cl)nc34)CC2)c1` [Example 541, 2-amino-4-[(3-methylphenylcarbamoyl)-piperazin-1-yl]-6-chloro-pyrido[3,2-d]pyrimidine] showed an IC50 of 60 nM. `CC(C)(C)OC(=O)N[C@@H]1CCN(c2nc(N)nc3ccc(-c4ccc(F)cc4)nc23)C1` [Example 575, 2-amino-4-[(R)-3-Boc-amino-pyrrolidin-1-yl]-6-(4-fluorophenyl)-pyrido(3,2-d)pyrimidine] showed an IC50 greater than 10000 nM. In the case of `COc1cc(-c2ccc3nc(N)nc(N4CCN(C(=O)COc5ccc(Cl)cc5)CC4)c3n2)ccc1OCc1ccccc1` [Example 501, 2-amino-4-[N-(4-chlorophenoxyacetyl)-piperazin-1-yl]-6-(3-methoxy-4-benzyloxyphenyl)-pyrido(3,2-d)pyrimidine], the IC50 is reported as greater than 10000 nM. Work on `Cc1cccc(NC(=O)N2CCN(c3nc(N)nc4ccc(-c5ccccc5C#N)nc34)CC2)c1` [Example 546, 2-amino-4-[(3-methylphenylcarbamoyl)-piperazin-1-yl]-6-(2-cyano-phenyl)-pyrido[3,2-d]pyrimidine] yielded an IC50 of 4 nM. `Nc1nc(N2CCN(C(=O)COc3ccc(Cl)cc3)CC2)c2nc(-c3ccc4c(c3)CCO4)ccc2n1` [Example 497, 2-amino-4-[N-(4-chlorophenoxyacetyl)-piperazin-1-yl]-6-(2,3-dihydro-1-benzofuran-5-yl)-pyrido(3,2-d)pyrimidine] gave an IC50 of 210 nM. With `Nc1nc(N2CCN(C(=O)N3CCOCC3)CC2)c2nc(-c3ccc(F)cc3)ccc2n1` [Example 466, 2-amino-4-[4-(morpholinocarbonyl)piperazin-1-yl]-6-(4-fluorophenyl)-pyrido[3,2-d]pyrimidine] the IC50 was 2500 nM. With `Nc1nc(N2CCN(C(=O)COc3ccc(Cl)cc3)CC2)c2nc(-c3ccc(C(=O)NC4CC4)cc3)ccc2n1` [Example 448, 2-amino-4-[4-(4-chlorophenoxyacetyl)piperazin-1-yl]-6-[4-(cyclopropylaminocarbonyl)phenyl]-pyrido-[3,2-d]pyrimidine] the IC50 was 15 nM. Work on `Nc1nc(N2CCN(C(=O)COc3ccc(Cl)cc3)CC2)c2nc(-c3ccc(OCc4ccccc4)c(F)c3)ccc2n1` [Example 513, 2-amino-4-[N-(4-chlorophenoxyacetyl)-piperazin-1-yl]-6-(3-fluoro-4-benzyloxy-phenyl)-pyrido(3,2-d)pyrimidine] yielded an IC50 greater than 10000 nM. For `CC(C)(C)OC(=O)N1CCC(Nc2nc(N)nc3ccc(-c4ccc(F)cc4)nc23)CC1` [Example 461, 2-amino-4-[1-(tert-butoxycarbonyl)piperid-4-ylamino]-6-(4-fluorophenyl)-pyrido[3,2-d]pyrimidine], the IC50 was 4000 nM. `Cc1cccc(NC(=O)N2CCN(c3ncnc4ccc(-c5ccc(F)c(C)c5)nc34)CC2)c1` [Example 555, 4-[(3-methylphenylcarbamoyl)-piperazin-1-yl]-6-(3-methyl-4-fluoro-phenyl)pyrido[3,2-d]pyrimidine] gave an IC50 of 300 nM. `CC(C)(C)OC(=O)N1CCN(c2nc(NC3CCCC3)nc3ccc(-c4ccc(F)cc4)nc23)CC1` [Example 568, 2-cyclopentylamino-6-(4-fluorophenyl)-4-(4-Boc-piperazino)-pyrido[3,2-d]pyrimidine] showed an IC50 of 6500 nM. For `Cc1cccc(NC(=O)N2CCN(c3nc(N)nc4ccc(-c5c(C)cccc5C)nc34)CC2)c1` [Example 550, 2-amino-4-[(3-methylphenylcarbamoyl)-piperazin-1-yl]-6-(2,6-dimethyl-phenyl)-pyrido[3,2-d]pyrimidine], the IC50 was 3500 nM. For `CC(C)(C)OC(=O)N1C[C@@H]2C[C@H]1CN2c1nc(N)nc2ccc(-c3ccc(F)cc3)nc12` [Example 483, (S,S)-5-[2-amino-6-(4-fluorophenyl)-pyrido[3,2-d]pyrimidin-4-yl]-2,5-diaza-bicyclo[2.2.1]heptane-2-carboxylic acid tert-butyl ester], the IC50 was 6100 nM. `COc1cc(-c2ccc3nc(N)nc(N4CCN(C(=O)COc5ccc(Cl)cc5)CC4)c3n2)ccc1O` [Example 496, 2-amino-4-[N-(4-chlorophenoxyacetyl)-piperazin-1-yl]-6-(3-methoxy-4-hydroxyphenyl)-pyrido(3,2-d)pyrimidine] gave an IC50 of 71 nM. With `Nc1nc(N2CCN(C(=O)COc3ccc(Cl)cc3)CC2)c2nc(-c3cccc(F)c3)ccc2n1` [Example 401, 2-amino-4-[4-(4-chlorophenoxyacetyl)piperazin-1-yl]-6-(3-fluorophenyl)pyrido-[3,2-d]pyrimidine] the IC50 was 300 nM. For `Nc1nc(N2CCN(C(=O)COc3ccc(Cl)cc3)CC2)c2nc(-c3ccc(OC(F)(F)F)cc3)ccc2n1` [Example 439, 2-amino-4-[4-(4-chlorophenoxyacetyl)piperazin-1-yl]-6-(4-trifluoromethoxyphenyl)-pyrido-[3,2-d]pyrimidine], the IC50 was 300 nM. With `C=CC(=O)N1CCN(c2nc(N)nc3ccc(-c4ccc(OC)c(OC)c4)nc23)CC1` [Example 393, 2-amino-4-[4-(2-propenoyl)piperazin-1-yl]-6-(3,4-dimethoxyphenyl)-pyrido[3,2-d]pyrimidine] the IC50 was 400 nM. `Cc1noc(C)c1-c1ccc2nc(N)nc(N3CCN(C(=O)COc4ccc(Cl)cc4)CC3)c2n1` [Example 411, 2-amino-4-[4-(4-chlorophenoxyacetyl)piperazin-1-yl]-6-(3,5-dimethylisoxazol-4-yl)pyrido-[3,2-d]pyrimidine] was tested, and the IC50 was 34 nM. `Cc1cccc(NC(=O)N2CCN(c3nc(N)nc4ccc(-c5ccccc5F)nc34)CC2)c1` [Example 547, 2-amino-4-[(3-methylphenylcarbamoyl)-piperazin-1-yl]-6-(2-fluoro-phenyl)-pyrido[3,2-d]pyrimidine] showed an IC50 of 60 nM. Molecule `Nc1nc(N2CCN(C(=O)COc3ccc(Cl)cc3)CC2)c2nc(-c3cccnc3)ccc2n1` [Example 409, 2-amino-4-[4-(4-chlorophenoxyacetyl)piperazin-1-yl]-6-(pyridin-3-yl)pyrido-[3,2-d]pyrimidine] has an IC50 of 5 nM.
